The values below are quoted from earlier work in the CATMoS acute toxicity set (Mansouri et al. 2021).

Values joined by “and” are separate entries in the source; they are usually repeats but may differ in a detail not shown here. Equal entries are not always repeated.

This data set can be described thus: rat acute oral toxicity. The following applies: in vivo.
Regarding `CC1CS1` (stereo not drawn), the LD50 (in general, the dose at which mortality reaches 50%) is 254 mg/kg. With `CC[C@@H](COC(=O)c1cc(OC)c(OC)c(OC)c1)N(C)CCN(C)[C@@H](CC)COC(=O)c1cc(OC)c(OC)c(OC)c1`, the LD50 was 1500 mg/kg. Turning to `NCCN1CCOCC1`, the LD50 was 3000 mg/kg. Take `CCCOC(=O)C1c2cc3c(cc2CC(C)C1C(=O)OCCC)OCO3` (stereo not drawn): the LD50 was 1500 mg/kg. `CC(C)(C)NCC(O)COc1cc(Cl)ccc1Cl` (stereo not drawn): the LD50 was 1300 mg/kg. Regarding `O=[N+]([O-])c1cccc2[nH]c(C(F)(F)F)nc12`, the LD50 was 10.6 mg/kg. `CCOc1ccc(NC(=O)C(N=Nc2ccc(-c3ccc(N=NC(C(C)=O)C(=O)Nc4ccc(OCC)cc4)c(Cl)c3)cc2Cl)C(C)=O)cc1` (stereo not drawn): the LD50 is 2230 mg/kg. With `O=[N+]([O-])c1nccs1`, the LD50 was 137 mg/kg.

Consider `CCCCOC(=O)Cc1ccc(N(CCCl)CCCl)cc1`, for which the median lethal dose (LD50) is 20 mg/kg. As for `COC(=O)Nc1nc2ccc(C(=O)c3ccc(F)cc3)cc2[nH]1`, the LD50 was 2560 mg/kg.

Regarding `CCOP(=S)(OCC)Oc1ccc2c3c(c(=O)oc2c1)CCCC3`, the LD50 was 67 mg/kg. Regarding `CCC(C)(C)c1ccc(OCCCCN)c(C(C)(C)CC)c1`, the LD50 is 800 mg/kg. With `NC(=O)N1CCC(c2ccccc2)CC1`, the LD50 is 790 mg/kg. Consider `Cc1ccc(C(C)C)cc1O`, for which the LD50 was 810 mg/kg.

`CCC(C)(O)c1ccccc1` (stereo not drawn): the LD50 is 1400 mg/kg. With `OCCC(O)Cl` (stereo not drawn), the LD50 was 110 mg/kg. Take `C1CCc2nnnn2CC1`: the LD50 was 140 mg/kg. As for `COc1cc(Cc2cnc(N)nc2N)cc(OC)c1N(C)C`, the LD50 was 1400 mg/kg. Turning to `CCCCNCC1COc2cccc(OCC)c2O1` (stereo not drawn), the LD50 is 348 mg/kg. For the compound `CC1CN1` (stereo not drawn), the median lethal dose (LD50) is 19 mg/kg. Consider `C=C(C#N)C(=O)OC`, for which the LD50 was 1600 mg/kg. For `CCCCOC(=O)COc1ccc(Cl)cc1C`, the LD50 is 914 mg/kg.

Take `ClC1=C(Cl)C2(Cl)C3C(Cl)C(Cl)CC3C1(Cl)C2(Cl)Cl` (stereo not drawn): the LD50 was 283 mg/kg. As for `COC(=O)C(C(C)=O)C(C)=O`, the LD50 was 1700 mg/kg.

Regarding `CCOC(=O)C1=C(O)c2ccccc2S(=O)(=O)N1C`, the median lethal dose (LD50) was 4800 mg/kg.

For the compound `CCc1ccc(=O)n(CSP(=S)(OC)OC)n1`, the LD50 is 30 mg/kg. Turning to `O=C(O)Cn1c(=O)n(Cc2ccc(Br)cc2F)c(=O)c2ccc(F)cc21`, the 50% lethal dose (LD50) is 2140 mg/kg. As to `CN(C)CCCN1c2ccccc2C(C)(C)c2ccccc21`, the LD50 was 1670 mg/kg and 1850 mg/kg. On to `BrC(Br)(Br)c1ccc2ccccc2n1`, for which the LD50 was 6770 mg/kg.

Take `CCOC(=O)c1nocc1C(=O)c1ccccc1`: the 50% lethal dose (LD50) was 1000 mg/kg. For `CCOC(=S)SSC(=S)OCC`, the LD50 was 480 mg/kg. With `CC1(NC(N)=O)CCCCC1`, the LD50 was 1040 mg/kg. In the case of `O=C(NO)Nc1ccc(Cl)c(Cl)c1`, the LD50 is 1850 mg/kg. For `CCCN(CCC)C(=O)CN(CC)P(=S)(OCC)OCC`, the median lethal dose (LD50) is 2080 mg/kg. On to `N=C(N)NCC1CCC(C(=O)Oc2ccccc2C(=O)OCc2ccccc2)CC1` (stereo not drawn), for which the LD50 was 8010 mg/kg. Consider `C=CCOC(=O)CC(C)C`, for which the LD50 is 230 mg/kg. Regarding `C[C@H](N)[C@H](O)c1ccccc1`, the 50% lethal dose (LD50) was 1540 mg/kg.

Turning to `CC(=O)SCC(=O)N=c1[nH]c2ccccc2s1`, the median lethal dose (LD50) was 400 mg/kg. For the compound `CN(CO)C(=O)Oc1cccc2ccccc12`, the LD50 was 5360 mg/kg.

`COCC=O`: the LD50 was 2330 mg/kg.

For the compound `COC(=O)CC(SP(=S)(OC)OC)C(=O)OC` (stereo not drawn), the LD50 is 1020 mg/kg. On to `O=C(O)c1cc(O)nc(O)n1`, for which the LD50 was 10900 mg/kg. Consider `CC(=O)Nc1ccccc1`, for which the LD50 is 800 mg/kg. In the case of `CCN(CC)c1ccc(-c2nc(=O)n(C)nc2-c2ccc(N(CC)CC)cc2)cc1`, the LD50 is 650 mg/kg.

In the case of `Cc1ccc(S(=O)(=O)NC(=O)NN2CC3CCCC3C2)cc1` (stereo not drawn), the LD50 is 3000 mg/kg. As for `CC(C)(C)c1cc([N+](=O)[O-])cc([N+](=O)[O-])c1O`, the LD50 is 26 mg/kg. For the compound `CC(C)OP(=O)(OC(C)C)SCc1ccccc1`, the LD50 was 550 mg/kg. In the case of `Clc1ccc(COC(Cn2ccnc2)c2ccc(Cl)cc2Cl)cc1` (stereo not drawn), the LD50 is 668 mg/kg.

Regarding `C=C(C)C(=O)OCCSCC`, the LD50 is 7400 mg/kg. Regarding `FCCBr`, the LD50 was 5 mg/kg. As to `COC(=O)C(C)c1ccc(-c2ccsc2)cc1` (stereo not drawn), the LD50 was 2330 mg/kg. As for `COP(=S)(OC)SC(C)N1CC(=O)C(=O)C1` (stereo not drawn), the LD50 is 5.6 mg/kg. Consider `C[N+]1(CCC(O)(c2ccccc2)C2CCCCC2)CCCC1` (stereo not drawn), for which the LD50 was 984 mg/kg and 985 mg/kg. Consider `CCCCCCC(C)=CC#N`, for which the median lethal dose (LD50) is 1720 mg/kg. With `COP(=O)(Oc1ccccc1)OC(Br)C(Cl)(Cl)Br` (stereo not drawn), the LD50 is 500 mg/kg. `O=NN1CN2CN(C1)CN(N=O)C2`: the LD50 was 940 mg/kg. For `C=C1C(C)(C)C2(Cl)C(Cl)(Cl)C(Cl)(Cl)C1(Cl)C2(Cl)Cl` (stereo not drawn), the LD50 is 40 mg/kg. In the case of `Cn1c(=O)c2c(nc(Cc3ccc(N)cc3)n2C)n(C)c1=O`, the LD50 was 383 mg/kg. `Cc1cc(C)c(C2C(=O)c3ccccc3C2=O)c(C)c1`: the LD50 was 1000 mg/kg. As to `C=CC(=O)OCCOCCOCCOC(=O)C=C`, the LD50 was 500 mg/kg.

Take `Cc1cc2c(C(C)C)c(O)c(O)c(C=O)c2c(O)c1-c1c(C)cc2c(C(C)C)c(O)c(O)c(C=O)c2c1O`: the LD50 was 2320 mg/kg. Consider `CCC1OC(C)C(=NOC(=O)NC)S1` (stereo not drawn), for which the median lethal dose (LD50) was 8 mg/kg. `Cc1ccc(CC(C)N)cc1` (stereo not drawn): the LD50 is 150 mg/kg. Consider `CCC(C)=CCCC(C)=O`, for which the LD50 was 3570 mg/kg. Consider `CCC1OCCSC1=NOC(=O)NC` (stereo not drawn), for which the median lethal dose (LD50) was 19 mg/kg.

With `C=CCOc1ccc([C@H]2c3ccc(OC)cc3OC(C)(C)[C@@H]2c2ccccc2)cc1`, the LD50 was 500 mg/kg. Take `Cc1c(Cc2cc(C(C)(C)C)c(O)c(C(C)(C)C)c2)c(C)c(Cc2cc(C(C)(C)C)c(O)c(C(C)(C)C)c2)c(C)c1Cc1cc(C(C)(C)C)c(O)c(C(C)(C)C)c1`: the 50% lethal dose (LD50) was 1500 mg/kg. `NCCCNCCNCCCN`: the LD50 was 1200 mg/kg. Consider `Nc1ccc(Cc2ccc(N)cc2)cc1`, for which the LD50 was 517 mg/kg.

Take `C=C(Cl)C(Cl)CCl` (stereo not drawn): the LD50 was 341 mg/kg. As to `CN(C)CC/C=C1/c2ccccc2CSc2ccccc21`, the LD50 was 260 mg/kg. Consider `CCS(=O)(=O)Cl`, for which the LD50 was 360 mg/kg. With `O=C1CC=C(O)N=N1`, the LD50 is 3900 mg/kg.

Take `COc1ccc(C(N)=O)cc1C(=O)NCc1cccnc1`: the LD50 is 1720 mg/kg. For `COP(=O)(OC)Oc1ccc(SC)cc1`, the LD50 was 7 mg/kg. Consider `Nc1ccc(S(=O)(=O)O)cc1`, for which the LD50 is 5380 mg/kg. As for `CCCCc1c(C)nc(N(C)C)nc1O`, the 50% lethal dose (LD50) was 2350 mg/kg. On to `CCCCCCCCCCCC(=O)OCCSC#N`, for which the LD50 is 500 mg/kg. For `O=[N+]([O-])c1cc(C(F)(F)F)cc([N+](=O)[O-])c1Cl`, the LD50 is 930 mg/kg.

`Cc1cccc(N(CCO)CCO)c1`: the LD50 is 3100 mg/kg. Turning to `CCOP(=S)(OCC)Sc1nc(C)cc(C)n1`, the LD50 is 59 mg/kg. In the case of `C[C@@H]1O[C@@H](O[C@@H]2C=C3CC[C@@H]4[C@H](CC[C@]5(C)[C@@H](c6ccc(=O)oc6)CC[C@]45O)[C@@]3(C)CC2)[C@H](O)[C@H](O)[C@H]1O`, the LD50 is 56 mg/kg. In the case of `CN1CCCN(C(c2ccccc2)c2ccc(Cl)cc2)CC1` (stereo not drawn), the LD50 is 490 mg/kg. In the case of `CC(Cc1ccccc1)OC(N)=O` (stereo not drawn), the LD50 was 1100 mg/kg. With `O=C(c1ccccc1)c1cccc(NS(=O)(=O)C(F)F)c1`, the LD50 is 750 mg/kg and 450 mg/kg.

Consider `CCOP(=S)(OCC)O/N=C(\C#N)c1ccccc1`, for which the LD50 is 300 mg/kg. Take `NCC(O)CO` (stereo not drawn): the LD50 is 7500 mg/kg. `Nc1ccc(Oc2ccc(N)cc2)cc1`: the LD50 was 725 mg/kg.
